Data on two compounds can be found in US11235066B2, “Micelles and methods” (THE REGENTS OF THE UNIVERSITY OF MICHIGAN, priority 2015, dated 2022).

A short description of series [1]: Body weight and physical signs during therapy. In kind it is in vivo, CPC; Apc mice. The following applies: vs no treatment (NSS) and plain rapamycin micelles. As to the method:
The number of mice (number of adenomas) at the end of the study were n=5 (20), 6 (24), 5 (22), and 7 (21), respectively. Two mice (one in NSS group and one in unlabeled (plain) rapamycin micelle group) died from unexplained cause. […] Mice underwent endoscopy every ˜4 days to monitor adenoma regression and were weighed every 2 days for 5 weeks. A total of n=230 colonoscopy examinations was performed.
A linear mixed effects regression models was used to assess efficacy and toxicity. An interaction between treatment groups and time (days) was estimated in the model to compare adenoma regression rates among the different rapamycin formulations. The model has two random effects to incorporate a correlation between data measured on the same adenoma and a correlation between adenomas found within the same animal. For weights, only one random effect was used to model the correlation between data from the same animal. A comparison was considered significant if P<0.01 to adjust for multiple comparisons. All analyses were performed using SAS ver 9.3. Unless stated otherwise, all data were tested for normality. A one-way ANOVA or non-parametric Kruskal-Wallis was used to determined statistical significance for comparisons among more than 2 groups. If there was at least one difference between treatment groups, multiple comparisons were used to search for pairwise differences. […]

For series [2] the following is noted: mouse, in vivo.
Procedure: All tissues (heart, spleen, kidney, liver, and colon) were fixed in phosphate-buffered formalin for 24 h, paraffin-embedded, and cut in 10 μm sections. Routine histology (H&E) was performed. Renal toxicity was assessed after completion of therapy. Histology (H&E) from representative murine kidney sections (n=4) from the different treatment groups were evaluated for tubules with vacuoles on five random fields (400× magnification) for each specimen.
Series [3] relates to colonic adenomas. Description: In vivo fluorescence endoscopy of Cy5.5-labeled peptides binding to colonic adenomas. More on the design: species or system CPC; Apc mouse. The following applies: Cy5.5-labeled peptide, 200 μM via tail vein, 1 hour circulation. From the text: Our laboratory has previously identified a group of peptides that bind specifically to colonic adenomas in the CPC; Apc mouse. Peptides […] (SEQ ID NO: 3), KCCFPAQ (SEQ ID NO: 9), LTTHYKL (SEQ ID NO: 18), and AKPGYLS (SEQ ID NO: 17) were identified using phage display technology. Peptides YTTTNAS (SEQ ID NO: 64) and DNEPIAQ (SEQ ID NO: 65) were included as controls. These peptides were identified based on an unbiased screen of cells and tissues to maximize specific binding in vivo. The peptides were labeled with Cy5.5 and injected via tail vein at a concentration of 200 μM in 1×PBS. The peptides were allowed to circulate for 1 hour to allow for non-specific binding to clear. The colon was rinsed again with tap water. Fluorescence images were then collected. […] Fluorescence images for each adenoma were analyzed by defining a region of interest (ROI) around the adenoma and adjacent normal-appearing mucosa using ImageJ software. The mean values were calculated for each ROI, and the T/B ratio was determined. The mean T/B ratio for each peptide was calculated, and Kruskal-Wallis and Dunn's multiple comparison tests were used to determine statistical differences. […]
We performed in vivo imaging of colon in CPC; Apc mice to select the peptide to label the micelles. […] Adenomas with diameter of >1.5 mm were identified, and the location from the anus was recorded. […]

For the compound `CO[C@H]1C[C@@H]2CC[C@@H](C)[C@@](O)(O2)C(=O)C(=O)N2CCCC[C@H]2C(=O)O[C@H]([C@H](C)C[C@@H]2CC[C@@H](O)[C@H](OC)C2)CC(=O)[C@H](C)/C=C(\C)[C@@H](O)[C@@H](OC)C(=O)[C@H](C)C[C@H](C)/C=C/C=C/C=C/1C` [free rapamycin, Rapamycin], the body weight result in series [1] is given as “gained more weight”. In series [2], the “renal toxicity: number of vacuolated tubules per high-power field” value is on record as “significantly greater number of vacuoles”.

Regarding LTTHYKL (SEQ ID NO: 18) [LTT*], the “target-to-background (T/B) ratio, in vivo fluorescence” value was “strongest binding” in series [3] and “highest mean value” in series [3] (listed as LTTHYKL).
